The source made the active and inactive calls. No cut-off for these calls is given here.
Key:
Staphylococcus aureus [1] = assay: Antibacterial activity against Staphylococcus aureus up to 80 uM by broth microdilution method; format: functional, organism-based; details: dose microM <=80
Candida albicans [2] = assay: Antimicrobial activity against Candida albicans incubated for 36 to 48 hrs under dark conditions; format: functional, organism-based; details: time 36-48 hrs
Staphylococcus aureus [3] = assay: Antimicrobial activity against methicillin resistant Staphylococcus aureus incubated for 36 to 48 hrs under dark conditions; format: functional, organism-based; details: time 36-48 hrs
Cell membrane [4] = assay: Binding affinity to Staphylococcus aureus cell membrane assessed as reduction in zeta potential by zetasizer-based analysis; format: subcellular
Cell membrane [5] = assay: Disruption of cell membrane integrity in Escherichia coli at 2 uM irradiated with 6J/cm2 light followed by compound exposure for 10 mins by FL-4L/propidium iodide Live/dead staining based laser confocal microscopic analysis
Staphylococcus aureus [6] = assay: Antimicrobial activity against Staphylococcus aureus incubated for 36 to 48 hrs under dark conditions; format: functional, organism-based; details: time 36-48 hrs
Cell membrane [7] = assay: Binding affinity to Escherichia coli cell membrane assessed as reduction in zeta potential by zetasizer-based analysis; format: subcellular
Escherichia coli [8] = assay: Antibacterial activity against Escherichia coli up to 80 uM by broth microdilution method; format: functional, organism-based; details: dose microM <=80
Escherichia coli [9] = assay: Binding affinity to Escherichia coli cell wall assessed as bound fraction at 25 uM measured after 3 to 10 mins; details: time 3-10 min
Escherichia coli [10] = assay: Binding affinity to Escherichia coli cell wall at 50 uM preincubated with 12.5 to 50 mM Ca2+ for 30 mins followed by incubation with compound for 30 mins
Cell membrane [11] = assay: Disruption of cell membrane integrity in Staphylococcus aureus at 2 uM irradiated with 6J/cm2 light followed by compound exposure for 10 mins by FL-4L/propidium iodide Live/dead staining based laser confocal microscopic analysis
Staphylococcus aureus [12] = assay: Photodynamic antibacterial activity against methicillin resistant Staphylococcus aureus assessed as bacterial eradication preincubated for 20 mins in dark condition followed by 18 J/cm2 LED light irradiation and measured after 18 hrs by broth microdilution method; format: functional; details: light or radiation study, 18.33 h, time 1100 min
Staphylococcus aureus [13] = assay: Light dose-dependent antimicrobial activity against methicillin-resistant Staphylococcus aureus at 2 to 4 uM preincubated for 10 mins in dark followed by irradiation with 0.6 to 6J/cm2 light dose incubated for 36 to 48 hrs; format: functional, organism-based; details: dose 2-4 µM, time 2170-2890 min
Candida albicans [14] = assay: Binding affinity to Candida albicans cell wall at 50 uM preincubated with 12.5 to 50 mM Ca2+ for 30 mins followed by incubation with compound for 30 mins
Candida albicans [15] = assay: Photodynamic antifungal activity against Candida albicans assessed as fungal eradication preincubated for 20 mins in dark condition followed by 18 J/cm2 LED light irradiation and measured after 18 hrs by broth microdilution method; format: functional; details: light or radiation study, 18.33 h, time 1100 min
Staphylococcus aureus [16] = assay: Binding affinity to Staphylococcus aureus cell wall at 50 uM preincubated with 12.5 to 50 mM Ca2+ for 30 mins followed by incubation with compound for 30 mins
HaCaT [17] = assay: Phototoxicity against human HaCaT cells assessed as reduction in cell viability preincubated for 30 mins followed by irradiation with 6J/cm2 light and measured after 24 hrs by MTT assay; format: cell-based; details: light or radiation study
Staphylococcus aureus [18] = assay: Photodynamic antibacterial activity against Staphylococcus aureus assessed as bacterial eradication preincubated for 20 mins in dark condition followed by 18 J/cm2 LED light irradiation and measured after 18 hrs by broth microdilution method; format: functional; details: light or radiation study, 18.33 h, time 1100 min
Candida albicans [19] = assay: Light dose-dependent antimicrobial activity against Candida albicans at 2 to 4 uM preincubated for 10 mins in dark followed by irradiation with 0.6 to 9J/cm2 light dose incubated for 36 to 48 hrs; format: functional, organism-based; details: dose 2-4 µM, time 2170-2890 min
Staphylococcus aureus [20] = assay: Photodynamic antimicrobial activity against methicillin resistant Staphylococcus aureus preincubated for 10 mins in dark followed by irradiation with 6J/cm2 light and measured after incubation for 36 to 48 hrs; format: functional, organism-based; details: dose 2-10 µM, time 2170-2890 min
Candida albicans [21] = assay: Photodynamic antimicrobial activity against Candida albicans preincubated for 10 mins in dark followed by irradiation with 9J/cm2 light and measured after incubation for 36 to 48 hrs; format: functional, organism-based; details: dose 2-10 µM, time 2170-2890 min
Escherichia coli [22] = assay: Light dose-dependent antimicrobial activity against Escherichia coli at 2 to 4 uM preincubated for 10 mins in dark followed by irradiation with 0.6 to 6J/cm2 light dose incubated for 36 to 48 hrs; format: functional, organism-based; details: dose 2-4 µM, time 2170-2890 min
[23] = Induction of singlet oxygen generation in DPBF solution assessed as singlet oxygen quantum yield irradiated with 80 mW/cm2 light by DPBF-based assay; format: functional
Staphylococcus aureus [24] = assay: Light dose-dependent antimicrobial activity against Staphylococcus aureus at 2 to 4 uM preincubated for 10 mins in dark followed by irradiation with 0.6 to 6J/cm2 light dose incubated for 36 to 48 hrs; format: functional, organism-based; details: dose 2-4 µM, time 2170-2890 min
Candida albicans [25] = assay: Disruption of cell membrane integrity in Candida albicans at 2 uM irradiated with 6J/cm2 light followed by compound exposure for 10 mins by FL-4L/propidium iodide Live/dead staining based laser confocal microscopic analysis
Escherichia coli [26] = assay: Antimicrobial activity against Escherichia coli incubated for 36 to 48 hrs under dark conditions; format: functional, organism-based; details: time 36-48 hrs
HaCaT [27] = assay: Dark toxicity in human HaCaT cells assessed as reduction in cell viability incubated for 30 mins under dark conditions by MTT assay; format: cell-based; details: 0.5 h
Escherichia coli [28] = assay: Photodynamic antimicrobial activity against Escherichia coli preincubated for 10 mins in dark followed by irradiation with 6J/cm2 light and measured after incubation for 36 to 48 hrs; format: functional, organism-based; details: dose 2-10 µM, time 2170-2890 min
Staphylococcus aureus [29] = assay: Photodynamic antimicrobial activity against Staphylococcus aureus preincubated for 10 mins in dark followed by irradiation with 6J/cm2 light and measured after incubation for 36 to 48 hrs; format: functional, organism-based; details: dose 3-18 µM, time 2170-2890 min
Staphylococcus aureus [30] = assay: Binding affinity to Staphylococcus aureus cell wall assessed as bound fraction at 25 uM measured after 3 to 10 mins; details: time 3-10 min
Candida albicans [31] = assay: Binding affinity to Candida albicans cell wall assessed as bound fraction at 25 uM measured after 3 to 10 mins; details: time 3-10 min
[32] = Octanol-water partition coefficient, logP of compound incubated for 24 hrs under shaking condition; format: physicochemical
Staphylococcus aureus [33] = assay: Antibacterial activity against methicillin resistant Staphylococcus aureus up to 80 uM by broth microdilution method; format: functional, organism-based; details: dose microM <=80
Candida albicans [34] = assay: Antifungal activity against Candida albicans up to 80 uM by broth microdilution method; format: functional, organism-based; details: dose microM <=80
Escherichia coli [35] = assay: Photodynamic antibacterial activity against Escherichia coli assessed as bacterial eradication preincubated for 20 mins in dark condition followed by 18 J/cm2 LED light irradiation and measured after 18 hrs by broth microdilution method; format: functional; details: light or radiation study, 18.33 h, time 1100 min
[36] = Drug localization in peripheral edge of Escherichia coli at 10 uM incubated for 30 mins by fluorescent dye based confocal microscopic analysis; format: ADME; details: 0.5 h
[37] = Drug uptake in human HaCaT cells at 5 uM measured after 10 to 30 mins by fluorescence based confocal laser scanning microscopic analysis; format: ADME, cell-based; details: time 10-30 min

Compound: CC1=C(I)C(C)=[N+]2C1=Cc1c(C)c(I)c(C)n1[B-]2(C#CC[N+](C)(C)C)C#CC[N+](C)(C)C.[I-].[I-]
- Activity (Staphylococcus aureus [1]): inactive
- Activity (Candida albicans [2]): inactive
- Activity (Staphylococcus aureus [3]): inactive
- Activity (Cell membrane [4]): Active
- Activity (Cell membrane [5]): Active
- Activity (Staphylococcus aureus [6]): inactive
- Activity (Cell membrane [7]): Active
- Activity (Escherichia coli [8]): inactive
- Activity (Escherichia coli [9]): 71%
- Activity (Escherichia coli [10]): inactive
- Activity (Cell membrane [11]): Active
- MIC (Staphylococcus aureus [12]): 1.25 µM
- Activity (Staphylococcus aureus [13]): Active
- Activity (Candida albicans [14]): inactive
- MIC (Candida albicans [15]): 1.25 µM
- Activity (Staphylococcus aureus [16]): inactive
- IC50 (HaCaT [17]): 4 µM
- MIC (Staphylococcus aureus [18]): 1.25 µM
- Activity (Candida albicans [19]): Active
- Activity (Staphylococcus aureus [20]): Dose-dependent effect
- Activity (Candida albicans [21]): Dose-dependent effect
- Activity (Escherichia coli [22]): Active
- Activity [23]: 0.68
- Activity (Staphylococcus aureus [24]): Active
- Activity (Candida albicans [25]): Active
- Activity (Escherichia coli [26]): inactive
- Activity (HaCaT [27]): Non-Toxic
- Activity (Escherichia coli [28]): Dose-dependent effect
- Activity (Staphylococcus aureus [29]): Dose-dependent effect
- Activity (Staphylococcus aureus [30]): 85.3%
- Activity (Candida albicans [31]): 90.8%
- logP at 24 h [32]: -1.21
- Activity (Staphylococcus aureus [33]): inactive
- Activity (Candida albicans [34]): inactive
- MIC (Escherichia coli [35]): 0.625 µM

Compound: CC1=CC(C)=[N+]2C1=Cc1c(C)cc(C)n1[B-]2(C#CC[N+](C)(C)C)C#CC[N+](C)(C)C.[I-].[I-]
- Drug uptake [36]: Active
- Drug uptake [37]: Active
- logP at 24 h [32]: -1.97

Compound: CC1=C(I)C(C)=[N+]2C1=Cc1c(C)c(I)c(C)n1[B-]2(OCCc1cc[n+](C)cc1)OCCc1cc[n+](C)cc1
- Activity (Staphylococcus aureus [1]): inactive
- Activity (Cell membrane [4]): Active
- Activity (Cell membrane [5]): Active
- Activity (Cell membrane [7]): Active
- Activity (Escherichia coli [8]): inactive
- Activity (Escherichia coli [9]): 51.9%
- Activity (Escherichia coli [10]): inactive
- Activity (Cell membrane [11]): inactive
- MIC (Staphylococcus aureus [12]): 20 µM
- Activity (Candida albicans [14]): inactive
- MIC (Candida albicans [15]): 40 µM
- Activity (Staphylococcus aureus [16]): inactive
- MIC (Staphylococcus aureus [18]): 20 µM
- Activity [23]: 0.74
- Activity (Candida albicans [25]): inactive
- Activity (Staphylococcus aureus [30]): 55%
- Activity (Candida albicans [31]): 34%
- logP at 24 h [32]: -1.14
- Activity (Staphylococcus aureus [33]): inactive
- Activity (Candida albicans [34]): inactive
- MIC (Escherichia coli [35]): 0.625 µM

Compound: CC1=C(I)C(C)=[N+]2C1=Cc1c(C)c(I)c(C)n1[B-]2(OCCC[N+](C)(C)C)OCCC[N+](C)(C)C
- Activity (Staphylococcus aureus [1]): inactive
- Activity (Cell membrane [4]): Active
- Activity (Cell membrane [7]): Active
- Activity (Escherichia coli [8]): inactive
- Activity (Escherichia coli [9]): 38.9%
- Activity (Escherichia coli [10]): inactive
- MIC (Staphylococcus aureus [12]): 20 µM
- Activity (Candida albicans [14]): inactive
- MIC (Candida albicans [15]): 40 µM
- Activity (Staphylococcus aureus [16]): inactive
- MIC (Staphylococcus aureus [18]): 30 µM
- Activity [23]: 0.68
- Activity (Staphylococcus aureus [30]): 51.8%
- Activity (Candida albicans [31]): 53.6%
- logP at 24 h [32]: -1.01
- Activity (Staphylococcus aureus [33]): inactive
- Activity (Candida albicans [34]): inactive
- MIC (Escherichia coli [35]): 40 µM

Compound: CC1=CC(C)=[N+]2C1=Cc1c(C)cc(C)n1[B-]2(OCCC[N+](C)(C)C)OCCC[N+](C)(C)C.[I-].[I-]
- Drug uptake [36]: Active
- logP at 24 h [32]: -1.17

Compound: CC1=C(I)C(C)=[N+]2C1=Cc1c(C)c(I)c(C)n1[B-]2(OCc1cc[n+](C)cc1)OCc1cc[n+](C)cc1
- Activity (Staphylococcus aureus [1]): inactive
- Activity (Escherichia coli [8]): inactive
- MIC (Staphylococcus aureus [12]): 40 µM
- MIC (Candida albicans [15]): 40 µM
- MIC (Staphylococcus aureus [18]): 50 µM
- Activity [23]: 0.59
- logP at 24 h [32]: -1.21
- Activity (Staphylococcus aureus [33]): inactive
- Activity (Candida albicans [34]): inactive
- MIC (Escherichia coli [35]): 25 µM

Compound: CC1=C(I)C(C)=[N+]2C1=Cc1c(C)c(I)c(C)n1[B-]2(OCC[N+](C)(C)C)OCC[N+](C)(C)C
- Activity (Staphylococcus aureus [1]): inactive
- Activity (Escherichia coli [8]): inactive
- MIC (Staphylococcus aureus [12]): 20 µM
- MIC (Candida albicans [15]): 40 µM
- MIC (Staphylococcus aureus [18]): 30 µM
- Activity [23]: 0.58
- logP at 24 h [32]: -1.21
- Activity (Staphylococcus aureus [33]): inactive
- Activity (Candida albicans [34]): inactive
- MIC (Escherichia coli [35]): 40 µM
